Experimental data taken from US9592213B2, “Prophylactic and/or therapeutic agent for dysmenorrhea” (National University Corporation Kumamoto University, priority 2009, dated 2017).
“Also recorded” adds a separate entry of the source.

How the values were obtained:
EM-E6/E7/hTERT cells = experiment: Example B2: western blotting of fibronectin and N-cadherin expression in endometrial epithelial cells; format: cell-based; details: tranilast 320 μM, 80 μM, 20 μM with TGFβ2 5 ng/ml, TNFα 100 ng/ml or both, 48 hours
Procedure: Cell line EM-E6/E7/hTERT cells (EM) derived from endometrial epithelium were disseminated in a 6-well glass plate (EZView Culture Plate, LB Cover Glass Bottom, 6 wells, Iwaki) at 1×10^5 cells/well, followed by culturing for 2 days at 37° C. in an environment having a carbon dioxide concentration of 5% in DMEM/F12 medium and in the presence of 10% serum, and then culturing for 3 days after replacing the medium with serum-free DMEM/F12 medium.
Subsequently, tranilast (320 μM, 80 μM, 20 μM) was added to medium containing TGFβ2 at 5 ng/ml, TNFα at 100 ng/ml or both followed by replacing the medium. Protein was recovered 48 hours after having replaced the medium with the medium containing TGFβ2 or TNFα, and expression levels of fibronectin and N-cadherin were compared by western blotting.
Anti-fibronectin antibody (clone ID: F14, Epitomics) and anti-N-cadherin antibody (clone ID: 32/N-cadherin, BD Transduction Laboratories) were used for the antibodies.

[1] = Clinical study of therapeutic effect of oral administration of tranilast in dysmenorrhea patients; format: in vivo, human
Procedure: Subject A was given 100 mg of tranilast three times a day by oral administration (300 mg per day, divided three times daily) daily for about six months starting on Sep. 1, 2008.
Menstrual pain was measured according to a numerical rating scale (NRS). In the NRS, the patient was asked to evaluate and record the degree of pain by themself by judging the degree of pain according to 11 levels ranging from level 0 indicating the absence of pain to level 10 indicating maximum pain. Menstrual blood loss was evaluated according to 5 levels ranging from level 0 indicating the absence of blood loss up to level 4 as blood loss increased.
The term “average” in the graphs indicates a value obtained by dividing the total sum of the pain level for each menstrual period by the number of days on which pain was felt.
The term “max” indicates a value of the day when the most intense pain was felt during each menstrual period.
Pain during menstruation was evaluated by the record made for each day by the patient according the 11 levels from level 0 indicating the absence of pain to level 10 indicating maximum pain in the same manner as Subjects A and B, using the NRS method.
The average values and maximum values of NRS scores indicating the intensity of pain during each menstrual period were derived, and the values were compared between the menstrual period at the start of administration and the last menstrual period during the administration period as shown in graphs of FIGS. 8A and 9A. In addition, the degrees of decrease in average values and maximum values for menstrual pain during the last menstrual period relative to the first menstrual period at the start of administration were represented as improvement rates, and are shown in FIGS. 8B and 9B.
Moreover, Subjects A, C, D, E, F and G, but excluding Subject B, underwent examinations at the facility conducting the clinical study at roughly one month intervals during the administration period, and were interviewed by a specialist in the department of gynecology. Interview findings before the start of administration and interview findings at the time of their final visit were compared and are shown in FIG. 10.

[2] = test system: Immortalized human retinal pigment epithelial cell line ARPE-19; experiment: Example B1: transition of cell morphology from mesenchymal form to epithelial form after TGFβ2 and TNFα; format: cell-based; details: tranilast 1 μg/ml added 48 hours after TGFβ2 5 ng/ml and TNFα 100 ng/ml, read after 96 hours
Procedure: Immortalized human retinal pigment epithelial cell line ARPE-19 (ATCC No.: CRL-2302) was disseminated into a 96-well glass plate (EZView Culture Plate, LB Cover Glass Bottom, 96 wells, Iwaki) at 1×10^4 cells/well followed by culturing at 37° C. in a 5% CO2 environment. After 5 days, 150 μl aliquots each of DMEM-F12 (serum-free, Sigma-Aldrich) medium supplemented by 5 ng/ml of TGFβ2 and 100 ng/ml of TNFα were prepared and used to replace the original medium in the wells and cultured at 37° C. in a 5% CO2 environment.
After 48 hours, the plate was removed from the incubator followed by the addition of tranilast (1 μg/ml) and culturing at 37° C. in a 5% CO2 environment. After 96 hours, the plate was washed with PBS and the cells were fixed for 30 minutes with 4% paraformaldehyde (Wako), and after washing with PBS, were stained for 1 hour with F-actin (Alexa Fluor 568 Phalloidin, Invitrogen) and nuclei (Hoechst 33342, Invitrogen) followed by washing with PBS and then immediately photographing using a fluorescence microscope (Keyence) at a magnification factor of 40×.

[3] = cited from earlier work
[4] = continuous infusion for 3.5 days at 7.5 mg/kg, normal adult; cited from earlier work
[5] = Patient history: adverse effects of earlier drugs in study subjects; format: in vivo, human; details: Subject I, administration from Mar. 18, 2010
[6] = Subject A, organic dysmenorrhea, 100 mg three times a day orally, about six months
[7] = Subject B, August menstrual period, 100 mg/day
[8] = Subject B, September menstrual period, 200 mg/day
[9] = Subject B, after start of administration
[10] = Subject B, functional dysmenorrhea, 100-200 mg/day orally, about six months

## COc1ccc(C=CC(=O)Nc2ccccc2C(=O)O)cc1OC [Tranilast, N-(3,4-dimethoxycinnamoyl) anthranilic acid]
EM-E6/E7/hTERT cells
  expression level of N-cadherin: inhibited the expression
  expression level of fibronectin: inhibited the expression
[1]; [6]
  lower abdominal pain and lower back pain during menstruation (NRS scores): trend of decrease; also recorded: effects of alleviating lower abdominal pain and lower back pain were observed
  menstrual blood loss: trend of decrease
[1]; Subject B
  adverse side effects from taking tranilast: no adverse side effects
[1]; [7]
  menstrual blood loss: remained high
  menstrual pain: less menstrual pain
[1]; Subject B, December, 100 mg/day
  pain and blood loss sensed by patient: reduced pain and blood loss
[1]; [8]
  menstrual blood loss: Reduction
  menstrual pain: Reduction
[1]; [9]
  duration of menstruation: decreased significantly
  symptoms of menorrhagia: clearly improved
[1]; [10]
  lower abdominal pain and lower back pain during menstruation (NRS scores): clearly decrease; also recorded: decrease significantly
  menstrual blood loss: clearly decrease; also recorded: decreased significantly
[1]; Subject H, organic dysmenorrhea, 100 mg three times per day orally, roughly one month
  pain at menstrual period: Pain diminished
[1]; Subject H, roughly one month after beginning administration
  need for analgesic: no longer need to take an analgesic
[1]; Subject I, examination Jun. 4, 2010
  menstrual pain and chronic pelvic pain when not menstruating (interview findings): diminished and no longer interfered with their job
[1]; Subject I, organic dysmenorrhea, 100 mg three times per day orally
  pain at first menstrual period after beginning administration: the pain diminished
[1]; Subject I, before: multiple days with four analgesic tablets per day
  analgesic use at first menstrual period after beginning administration: one tablet of analgesic per day for 3 days
[1]; Subjects A, B, C, D, E, F and G
  pain during menstruation, last menstrual period of administration vs menstrual period at start (NRS average and maximum): prominent decreases
[1]; Subjects A, C, D, E and F
  interview findings by gynecological specialist on menstrual pain, final visit vs before start: menstrual pain diminished
[2]
  cell morphology: exhibited an epithelial form
  foci formed after TGFβ2 and TNFα: alleviated
[3]; 1,4-dioxane
  solubility in 1,4-dioxane: soluble
[3]; N,N-dimethylformamide
  solubility in N,N-dimethylformamide: freely soluble
[3]; diethyl ether
  solubility in diethyl ether: very slightly soluble
[3]; ethanol
  solubility in ethanol: slightly soluble
[3]; water
  solubility in water: practically insoluble
[4]
  Cmax: 2200 ng/mL

## C[C@]12CCC3=C4CCC(=O)C=C4CC[C@H]3[C@@H]1CC[C@@]2(O)CC#N [dienogest]
[5]
  adverse effect in patient history leading to discontinuation: persistent abnormal genital bleeding
